Reference: patent US20080167271A1, “PHARMACEUTICAL COMPOSITIONS COMPRISING A BISPHOSPHONATE COMPOUND” (Besins Healthcare SA, priority 2006, published 2008)
Like-named read-outs stand apart in the source and are kept apart here. Values belong to the compound of their own block, whether it stands above or below them.

Columns and labels:
[1] = Bisphosphonate concentration at about 90% saturation in vehicles; assay type: physicochemical
ovariectomized rats = system: ovariectomized rats
Excerpt: Ovariectomized rats are a recognised model for bone loss study, as the surgical operation causes an estrogen deficiency which results in rapid bone loss. See Guideline on the evaluation of medicinal products in the treatment of primary osteoporosis, CPMP/EWP/552/95 available for download from the European Medicine Agency at: http://www.emea.europa.eu/.
13-week old rats (Sprague-Dawley, virgin female), 8 per group, were sham operated (group 1-control) or ovariectomized (OVX) (groups 2 to 7) on the day before the first day of treatment. […] The ratio of D-Pyr to Creat is a recognised marker of bone resorption. See, e.g., Christenson RH “Biochemical markers of bone metabolism: an overview” Clin Biochem 1997, 30(8), 573-593.
Femur and L2-L5 lumbar vertebrae block Bone Mineral Density (BMD) were calculated from in vivo Dual-energy X-ray Absorptiometry (DXA) measurement at the same time points with an Hologic apparatus. BMD was also measured ex vivo on dissected femur and L4 vertebrae at the end of the treatment period.

[2] = humans; cited from earlier work
[3] = rat, published data (Lin et al., J Pharm Sci); cited from earlier work
[4] = Solubility of menthol in hydroalcoholic mixtures with bisphosphonate at 90% saturation (GC-FID); conditions: QS 100 g phosphate buffer pH 6
[5] = system: human abdominal dermatomed skin; test: In vitro dermal absorption, Franz cell assay; assay type: in vitro ADME
[6] = group 3: OVX rats, 2 μg/kg sc inj daily
[7] = group 4: OVX rats, topical 4.46 mg/kg daily (15.6 mg/kg/d for first 2 weeks)
[8] = group 5: OVX rats, topical 15.6 mg/kg weekly
[9] = group 7: OVX rats, topical 10.85 mg/kg twice weekly (15.6 mg/kg twice a week for first 2 weeks)
[10] = buffered hydroalcoholic solution 90/10 buffer/ethanol

Structure (SMILES): O=P([O-])(O)C(O)(Cc1cccnc1)P(=O)(O)O.[Na+] [Sodium Risedronate]
anhydrous concentration (w/w) at about 90% saturation ([1]; Water/ethanol ratio (v/v) 50/50): 0.02%
anhydrous concentration (w/w) at about 90% saturation ([1]; Water/ethanol ratio (v/v) 60/40): 0.17%
anhydrous concentration (w/w) at about 90% saturation ([1]; Water/ethanol ratio (v/v) 70/30): 0.22%
anhydrous concentration (w/w) at about 90% saturation ([1]; Water/ethanol ratio (v/v) 80/20): 0.77%
anhydrous concentration (w/w) at about 90% saturation ([1]; Water/ethanol ratio (v/v) 90/10): 1.66%

Structure (SMILES): NCCCC(O)(P(=O)(O)O)P(=O)(O)O [alendronate, 4-amino-1-hydroxybutylidene-1,1-bisphosphonic acid]
BMD results compared with subcutaneous injection (group 3) or control (group 1) (ovariectomized rats; OVX rats treated with topical alendronate, groups 4-7): similar
Ex vivo BMD L4 vertebrae Week 8 (ovariectomized rats; [6]): 0.251 ± 0.012 g/cm^2
In vivo BMD Vertebrae Evolution (Week 8 − Baseline) (ovariectomized rats; [6]): 0.035 ± 0.01 g/cm^2
In vivo BMD metaphysis Week 8 (ovariectomized rats; [6]): 0.243 ± 0.029 g/cm^2
In vivo BMD total femur Evolution (Week 8 − Baseline) (ovariectomized rats; [6]): 0.035 ± 0.015 g/cm^2
In vivo BMD total femur Week 8 (ovariectomized rats; [6]): 0.291 ± 0.013 g/cm^2
Ex vivo BMD L4 vertebrae Week 8 (ovariectomized rats; [7]): 0.26 ± 0.01 g/cm^2
In vivo BMD Vertebrae Evolution (Week 8 − Baseline) (ovariectomized rats; [7]): 0.035 ± 0.012 g/cm^2
In vivo BMD metaphysis Week 8 (ovariectomized rats; [7]): 0.270 ± 0.032 g/cm^2
In vivo BMD total femur Evolution (Week 8 − Baseline) (ovariectomized rats; [7]): 0.04 ± 0.008 g/cm^2
In vivo BMD total femur Week 8 (ovariectomized rats; [7]): 0.302 ± 0.015 g/cm^2
Ex vivo BMD L4 vertebrae Week 8 (ovariectomized rats; [8]): 0.255 ± 0.017 g/cm^2
In vivo BMD Vertebrae Evolution (Week 8 − Baseline) (ovariectomized rats; [8]): 0.023 ± 0.012 g/cm^2
In vivo BMD metaphysis Week 8 (ovariectomized rats; [8]): 0.252 ± 0.009 g/cm^2
In vivo BMD total femur Evolution (Week 8 − Baseline) (ovariectomized rats; [8]): 0.023 ± 0.016 g/cm^2
In vivo BMD total femur Week 8 (ovariectomized rats; [8]): 0.293 ± 0.011 g/cm^2
Ex vivo BMD L4 vertebrae Week 8 (ovariectomized rats; [9]): 0.261 ± 0.015 g/cm^2
In vivo BMD Vertebrae Evolution (Week 8 − Baseline) (ovariectomized rats; [9]): 0.028 ± 0.008 g/cm^2
In vivo BMD metaphysis Week 8 (ovariectomized rats; [9]): 0.264 ± 0.027 g/cm^2
In vivo BMD total femur Evolution (Week 8 − Baseline) (ovariectomized rats; [9]): 0.032 ± 0.025 g/cm^2
In vivo BMD total femur Week 8 (ovariectomized rats; [9]): 0.304 ± 0.024 g/cm^2
dermal tolerance problems (ovariectomized rats; groups 4 and 7, topical 15.6 mg/kg/d and 15.6 mg/kg twice a week, doses reduced after 2 weeks): formation of dry scabs
BMD in the distal metaphysis (part of femur) compared with subcutaneous injection group (group 3) (ovariectomized rats; topically treated groups 4 and 7): statistically higher
systemic dose recovered in the urine [2]: approximately 50%
concentration of anhydrous monosodium salt at 90% saturation [1, 10]: 10.4 mg/g
concentration of anhydrous monosodium salt at 90% saturation ([1]; pure water): 28.09 mg/g
bone recovery after oral administration [3]: 0.9%

Solubility of menthol in the presence of sodium alendronate ([4]; 10 g ethanol absolute): 70 mg/100 g
Solubility of menthol in the presence of sodium risedronate ([4]; 10 g ethanol absolute): 80 mg/100 g
Solubility of menthol in the presence of sodium alendronate ([4]; 20 g ethanol absolute): 120 mg/100 g
Solubility of menthol in the presence of sodium risedronate ([4]; 20 g ethanol absolute): 140 mg/100 g
Structure (SMILES): CC1CCC(C(C)C)C(O)C1 (stereo not shown) [menthol]

Structure (SMILES): O=P(O)(O)C(O)(Cc1cccnc1)P(=O)(O)O [risedronate, 1-hydroxy-2-(3-pyridyl)ethylidene-1,1-bisphosphonic acid]
effect of glycerine on amount recovered in the receptor fluid and the dermis ([5]; FIGS. 12-13): does not significantly increase
percutaneous absorption: recovery in the receptor fluid and the dermis ([5]; Franz cell, human skin, 24 hrs): does cross the skin
effect of urea on amount recovered in the receptor fluid and dermis/skin ([5]; buffered solution vs 100% phosphate buffer, FIGS. 10-11): increases
effect of menthol on amount recovered in the receptor fluid and dermis ([5]; menthol at 90% of saturating concentration in 90/10 phosphate buffer/ethanol vs phosphate buffer solution, FIGS. 6-7): does not increase
amount recovered in the receptor fluid and the dermis with oleic acid ([5]; oleic acid at 90% of maximum solubility in 90/10 phosphate buffer/ethanol with Tween 80 4.5%, vs 100% phosphate buffer solution): lower
effect of urea on amount recovered in the receptor fluid and dermis ([5]; urea in phosphate buffer solution, FIGS. 8-9): neutral effect
effect of propylene glycol (PG) on amount recovered ([5]; vs 100% phosphate buffer solution, FIGS. 10-11): does not significantly affect
effect of the increase in alcohol content on absorption (percentage of the dose applied) ([5]; water/alcohol solutions, FIGS. 1-2): slightly increased
concentration of anhydrous monosodium salt at 90% saturation [1, 10]: 22.4 mg/g
concentration of anhydrous monosodium salt at 90% saturation ([1]; pure water): 45.3 mg/g
